According to patent US20230181546A1, “TREATMENT OF RESPIRATORY DISEASES WITH AMINO ACID COMPOUNDS” (Pliant Therapeutics, Inc., priority 2020, published 2023):

Biological target: recombinant human integrin αVβ6 (Homo sapiens, UniProt P06756+P18564)
Assay: Solid phase integrin αVβ6 binding assay (Examples B1, B2)
Conditions: TGFβ1 LAP binding, values given in four ranges, read-out: αvβ6 Inhibition IC50 (nM) - range
Protocol: (§1) Microplates were coated with recombinant human integrin αVβ6 (2 μg/mL) in PBS (100 μL/well 25° C., overnight). The coating solution was removed, washed with wash buffer (0.05% Tween 20: 0.5 mM MnCl2; in 1×TBS). The plate was blocked with 200 μL/well of Block Buffer (1% BSA; 5% sucrose; 0.5 mM MnCl2; in 1×TBS) at 37° C. for 2 h. Dilutions of testing compounds and recombinant TGFβ1 LAP (0.67 μg/mL) in binding buffer (0.05% BSA; 2.5% sucrose; 0.5 mM MnCl2; in 1×TBS) were added. The plate was incubated for 2 hours at 25° C., washed, and incubated for 1 hour with Biotin-Anti-hLAP. Bound antibody was detected by peroxidase-conjugated streptavidin. The IC50 values for testing compounds were calculated by a four-parameter logistic regression.
The compounds tested were compound samples prepared according to procedures described in the Synthetic Examples section, with the stereochemical purity as indicated in the Examples.
as §1, with “A third series of exemplary compounds was selected for testing in the solid phase integrin αVβ6 binding assay. The compounds tested were compound samples prepared according to procedures described in the Synthetic Examples section, with the stereochemical purity as indicated in the Examples. As in Example B1, microplates” for “Microplates”, “20;” for “20:”

recombinant human integrin αVβ6, sequence (P06756 31-992 limits assumed): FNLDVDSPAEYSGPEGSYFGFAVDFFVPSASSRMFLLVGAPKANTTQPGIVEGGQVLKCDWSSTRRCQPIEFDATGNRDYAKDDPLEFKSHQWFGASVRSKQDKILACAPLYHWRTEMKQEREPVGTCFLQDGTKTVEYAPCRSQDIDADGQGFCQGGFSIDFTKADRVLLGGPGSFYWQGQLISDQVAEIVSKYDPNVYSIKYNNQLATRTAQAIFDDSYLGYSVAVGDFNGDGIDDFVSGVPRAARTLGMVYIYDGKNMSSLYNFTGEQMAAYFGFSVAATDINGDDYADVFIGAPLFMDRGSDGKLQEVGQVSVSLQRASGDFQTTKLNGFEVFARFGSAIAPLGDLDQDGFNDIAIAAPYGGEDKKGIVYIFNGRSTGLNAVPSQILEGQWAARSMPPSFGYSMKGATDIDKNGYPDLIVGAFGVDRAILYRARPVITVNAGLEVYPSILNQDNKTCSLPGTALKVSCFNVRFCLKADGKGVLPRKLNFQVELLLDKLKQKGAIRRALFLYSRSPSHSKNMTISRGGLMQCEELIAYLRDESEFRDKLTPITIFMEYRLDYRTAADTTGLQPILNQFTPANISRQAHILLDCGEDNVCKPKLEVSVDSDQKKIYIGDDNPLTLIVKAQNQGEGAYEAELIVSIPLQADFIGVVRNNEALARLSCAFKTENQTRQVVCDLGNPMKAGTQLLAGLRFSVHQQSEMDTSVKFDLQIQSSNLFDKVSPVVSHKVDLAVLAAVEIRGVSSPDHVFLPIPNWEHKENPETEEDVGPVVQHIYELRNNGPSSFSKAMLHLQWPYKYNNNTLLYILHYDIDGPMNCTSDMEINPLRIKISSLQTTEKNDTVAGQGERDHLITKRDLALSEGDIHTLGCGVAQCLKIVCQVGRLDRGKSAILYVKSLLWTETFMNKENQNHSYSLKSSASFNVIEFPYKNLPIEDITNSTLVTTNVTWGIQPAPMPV
recombinant human integrin αVβ6, sequence (P18564 22-707 limits assumed): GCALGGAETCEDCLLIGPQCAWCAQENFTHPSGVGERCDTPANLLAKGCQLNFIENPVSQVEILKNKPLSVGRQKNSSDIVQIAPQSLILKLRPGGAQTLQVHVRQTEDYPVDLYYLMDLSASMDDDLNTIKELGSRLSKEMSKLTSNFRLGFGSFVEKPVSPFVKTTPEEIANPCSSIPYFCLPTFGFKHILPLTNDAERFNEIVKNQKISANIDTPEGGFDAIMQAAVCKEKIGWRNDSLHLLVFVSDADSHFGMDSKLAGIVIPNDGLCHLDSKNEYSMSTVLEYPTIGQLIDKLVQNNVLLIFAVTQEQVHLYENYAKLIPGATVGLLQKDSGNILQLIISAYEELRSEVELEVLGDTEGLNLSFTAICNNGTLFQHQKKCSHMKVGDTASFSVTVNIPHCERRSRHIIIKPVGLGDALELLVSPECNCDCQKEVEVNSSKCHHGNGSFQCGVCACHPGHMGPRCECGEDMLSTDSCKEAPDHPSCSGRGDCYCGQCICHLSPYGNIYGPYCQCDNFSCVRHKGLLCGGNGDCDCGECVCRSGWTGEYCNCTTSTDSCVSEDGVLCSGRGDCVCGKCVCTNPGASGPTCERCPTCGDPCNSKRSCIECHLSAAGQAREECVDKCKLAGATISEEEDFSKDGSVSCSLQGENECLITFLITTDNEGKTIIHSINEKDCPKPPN

| Compound | IC50 [nM] |
| --- | --- |
| CO[C@H](C)CN(CCCCc1ccc2c(n1)NCCC2)CC[C@H](Nc1ncc(Br)cn1)C(=O)O [Compound 70, (S)-2-((5-bromopyrimidin-2-yl)amino)-4-(((R)-2-methoxypropyl) (4-(5,6,7,8-tetrahydro-1,8-naphthyridin-2-yl)butyl)amino) butanoic acid] | < 50 |
| O=C(O)[C@H](CCN(CCCCc1ccc2c(n1)NCCC2)CCOc1ccccc1)Nc1ncc(Br)cn1 [Compound 83, (S)-2-((5-bromopyrimidin-2-yl)amino)-4-((2-phenoxyethyl) (4-(5,6,7,8-tetrahydro-1,8-naphthyridin-2-yl)butyl)amino) butanoic acid] | < 50 |
| O=C(O)[C@H](CCN(CCCCc1ccc2c(n1)NCCC2)CCOc1ccccc1)Nc1ccnc(C(F)(F)F)n1 [Compound 92, (S)-4-((2-phenoxyethyl) (4-(5,6,7,8-tetrahydro-1,8-naphthyridin-2-yl)butyl)amino)-2-((2-(rifluoromethyl)pyrimidin-4-yl)amino) butanoic acid] | < 50 |
| O=C(O)[C@H](CCN(CCCCc1ccc2c(n1)NCCC2)CC(F)F)Nc1ccncn1 [Compound 120, (S)-4-((2,2-difluoroethyl) (4-(5,6,7,8-tetrahydro-1,8-naphthyridin-2-yl)butyl)amino)-2-(pyrimidin-4-ylamino) butanoic acid] | > 1000 |

Second part, the compound after the results:

| IC50 [nM] | Compound |
| --- | --- |
| < 50 | COCCN(CCCCc1ccc2c(n1)NCCC2)CC[C@H](Nc1cc(C(F)F)ncn1)C(=O)O [Compound 23, (S)-2-((6-(difluoromethyl)pyrimidin-4-yl)amino)-4-((2-methoxyethyl) (4-(5,6,7,8-tetrahydro-1,8-naphthyridin-2-yl)butyl)amino) butanoic acid] |
| < 50 | O=C(O)[C@H](CCN(CCCCc1ccc2c(n1)NCCC2)CCOC(F)F)Nc1ncnc2ccccc12 [Compound 35, (S)-4-((2-(difluoromethoxy)ethyl) (4-(5,6,7,8-tetrahydro-1,8-naphthyridin-2-yl)butyl)amino)-2-(quinazolin-4-ylamino) butanoic acid] |
| < 50 | Cc1ncccc1OCCN(CCCCc1ccc2c(n1)NCCC2)CC[C@H](Nc1ncnc2cccnc12)C(=O)O [Compound 54, (S)-4-((2-((2-methylpyridin-3-yl)oxy)ethyl) (4-(5,6,7,8-tetrahydro-1,8-naphthyridin-2-yl)butyl)amino)-2-(pyrido[3,2-d]pyrimidin-4-ylamino) butanoic acid] |
